As usually defined, the IC50 is the concentration at which inhibition is half-maximal. In general, IC90 refers to the point of the concentration-response curve where the effect stands at 90%. Low readings indicate an effect from little substance, high ones a need for much substance.

The subject of this assay is M. tuberculosis H37Rv growth inhibition with meropenem. Put plainly: H37Rv growth inhibition with and without meropenem, dose response, set 2 (AID 504703).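 Note: growth ran 7 days at 37 °C then overnight with Alamar Blue before reading.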
[1] abbreviates: M. tuberculosis H37Rv growth inhibition, measured here: IC50 without meropenem.
Where [2] appears, read: M. tuberculosis H37Rv growth inhibition, measured here: IC90 without meropenem.
The mark [3] stands for this setting: measured here: IC90 with meropenem.

“And” between values parts separate entries of the source, which are not always exact repeats. Identical values can stand only once. The source made the active and inactive calls. The rule behind the calls is not given here.

For the compound `O=C(COc1ccc2c3c(c(=O)oc2c1)CCC3)Nc1nc2ccccc2[nH]1`, the IC50 under setting [1] is > 25 µM. Under setting [2], the IC90 was > 25 µM.

On to `COc1ccc2nc(NC(=O)c3oc4ccccc4c3C)sc2c1`, for which the half-inhibitory concentration (IC50) under setting [1] is > 25 µM. Also, the IC90 under setting [2] is > 25 µM.

In the case of `CCC(=O)N/C(N)=N/c1nc2ccccc2o1`, under setting [1], the IC50 is > 25 µM. The 90% effect concentration (IC90) under setting [2] is > 25 µM.

`COc1cccc(NC(=S)Nc2cc(C)cc(C)n2)c1`: the IC50 was 7.2 µM (inactive). Further, under setting [1], the IC50 worked out at 14.4 µM. Besides, under setting [2], the IC90 is > 25 µM. The IC90 under setting [3] was > 25 µM.

Consider `CCOc1ccc2c(ccn2-c2ccccc2)c1`, for which the 50% inhibitory concentration (IC50) under setting [1] is > 25 µM. For the same compound, the 90% effect concentration (IC90) under setting [2] was > 25 µM.

Regarding `CN(NC(=O)c1c(Cl)cccc1Cl)c1cccc(Cl)n1`, the IC50 is 15.5 µM (inactive). For the same compound, the 50% inhibitory concentration (IC50) under setting [1] is > 25 µM. Also, under setting [2], the concentration for an effect of 90% (IC90) was > 25 µM. Further, under setting [3], the IC90 was > 25 µM.

Take `CCCN1CC(O)=C(c2nc3ccccc3s2)C1=N`: the IC50 under setting [1] is > 25 µM. Further, under setting [2], the IC90 is > 25 µM.

`CC(=O)c1c(C)n(-c2cccc(Cl)c2)c2ccc(O)cc12`: the IC50 under setting [1] is > 25 µM. In addition, the IC90 under setting [2] was > 25 µM.

`O=C(Cc1csc(-c2ccccc2F)n1)Nc1nc2ccccc2[nH]1`: the half-maximal inhibitory concentration (IC50) under setting [1] is > 25 µM. The IC90 under setting [2] is > 25 µM.

`O=C(Nc1nc2ccccc2[nH]1)c1cc2cc(Br)ccc2o1`: the IC50 under setting [1] is > 25 µM. Besides, the concentration for an effect of 90% (IC90) under setting [2] is > 25 µM.

Take `COc1ccccc1C(=O)N/C(N)=N/c1nc2ccccc2o1`: the IC50 under setting [1] was > 25 µM. Besides, the IC90 under setting [2] was > 25 µM.

Turning to `Cc1cc2cc(O)ccc2[nH]1`, the concentration for half-maximal inhibition (IC50) under setting [1] is > 25 µM. For the same compound, the concentration for an effect of 90% (IC90) under setting [2] is > 25 µM.

Regarding `CCOc1ccc2c(c1)cc(C)n2-c1ccccc1`, the IC50 is 11.5 µM (inactive). Further, the IC50 under setting [1] was > 25 µM. In addition, the IC90 under setting [2] is > 25 µM. Moreover, under setting [3], the IC90 was > 25 µM.

Consider `N/C(=N\c1nc2ccccc2o1)NC(=O)COc1ccc2ccccc2c1`, for which, under setting [1], the IC50 was > 25 µM. Further, the 90% effect concentration (IC90) under setting [2] is > 25 µM.

For the compound `COc1ccc2c(c1)c(C(C)=O)c(C)n2-c1ccccc1`, the IC50 under setting [1] is > 25 µM. In addition, the IC90 reads like this: under setting [2], > 25 µM; under setting [3], > 18.8 µM.

With `CCOc1ccc2c(c1)c(C(C)=O)c(C)n2-c1ccccc1`, the half-inhibitory concentration (IC50) under setting [1] was > 25 µM. The IC90 is > 25 µM under setting [2]; > 18.8 µM and 2.79 µM under setting [3].

Take `COc1ccc2nc(NC(=O)COc3ccc(C)cc3)sc2c1`: under setting [1], the IC50 was > 25 µM. Further, the IC90 under setting [2] was > 25 µM.

In the case of `O=C(Nc1ccccc1)Nc1csc2ccccc12`, the half-inhibitory concentration (IC50) under setting [1] was 5.5 µM and 1.82 µM. Besides, the IC90 reads like this: under setting [2], > 25 µM; under setting [3], > 25 µM.

`CC(C)Cn1c2c(c(O)c(C(=O)Nc3nccs3)c1=O)CCCC2`: the concentration for half-maximal inhibition (IC50) under setting [1] is > 25 µM. In addition, the concentration for an effect of 90% (IC90) under setting [2] was > 25 µM.

Regarding `Cc1c(OCc2ccc(C(=O)O)cc2)ccc2c(-c3ccccc3)cc(=O)oc12`, the IC50 under setting [1] was > 25 µM. The 90% effect concentration (IC90) by setting is: under setting [2], > 25 µM; under setting [3], > 25 µM.

Take `CC(=O)c1c(C)n(-c2ccccc2)c2ccc(OC(C)C)cc12`: under setting [1], the IC50 is > 25 µM. In addition, the 90% effect concentration (IC90) under setting [2] is > 25 µM.

On to `Cc1ccc(OC(C)C(=O)Nc2ncccn2)c(C)c1` (stereo not given), for which the IC50 under setting [1] was > 25 µM. The IC90 under setting [2] is > 25 µM.

With `CCOc1ccc2c(c1)c(C(C)=O)c(C)n2-c1ccccc1Cl`, the IC50 was 13.6 µM (inactive). For the same compound, under setting [1], the IC50 is > 25 µM. For the same compound, under setting [2], the IC90 is > 25 µM. Also, the IC90 under setting [3] was > 25 µM.

As for `COc1ccc2nc(NC(=O)C(C)Oc3ccccc3)sc2c1` (stereo not given), the IC50 under setting [1] was > 25 µM. Further, under setting [2], the concentration for an effect of 90% (IC90) was > 25 µM.

For the compound `CCOc1ccc2[nH]c(C)cc2c1`, the IC50 under setting [1] is > 25 µM. Further, the IC90 under setting [2] was > 25 µM.

`O=C(CC12CC3CC(CC(C3)C1)C2)NCc1ccc(F)cc1`: under setting [1], the half-inhibitory concentration (IC50) is > 25 µM. Further, under setting [2], the IC90 is > 25 µM.

In the case of `COc1ccc2nc(NC(=O)COc3ccccc3)sc2c1`, the IC50 under setting [1] was > 25 µM. Besides, the IC90 under setting [2] was > 25 µM.

`COc1ccc(Cl)cc1C(=O)Nc1nc2ccccc2[nH]1`: the IC50 is 16.2 µM (inactive). Moreover, under setting [1], the IC50 is > 25 µM. Also, under setting [2], the concentration for an effect of 90% (IC90) is > 25 µM. Moreover, under setting [3], the IC90 is > 25 µM.

For `Cc1cc2ccccc2[nH]1`, under setting [1], the IC50 was > 25 µM. In addition, the IC90 under setting [2] was > 25 µM.

Take `CCOc1ccc2nc(NC(=O)COc3ccc(Cl)c(C)c3)sc2c1`: the half-inhibitory concentration (IC50) under setting [1] is > 25 µM. In addition, under setting [2], the IC90 is > 25 µM.

Turning to `c1ccc(OCc2nnc(-c3ccccc3)o2)cc1`, the IC50 was 15 µM (inactive). In addition, the IC50 under setting [1] was > 18.8 µM and 15.3 µM. Also, the concentration for an effect of 90% (IC90) under setting [2] was > 25 µM. The 90% effect concentration (IC90) under setting [3] is > 25 µM.

Take `Cc1ccc(OCC(=O)Nc2nnn(C)n2)c(C)c1`: under setting [1], the IC50 was > 25 µM. The 90% effect concentration (IC90) under setting [2] was > 25 µM.

For the compound `O=C(COC(=O)C1=COCCO1)Nc1ccc2c(c1)OCO2`, the IC50 under setting [1] is > 25 µM. Moreover, the IC90 is, setting by setting: under setting [2], > 25 µM; under setting [3], > 25 µM.

Turning to `COc1ccc2nc(NC(=O)COc3ccccc3C(C)C)sc2c1`, the half-maximal inhibitory concentration (IC50) under setting [1] was > 25 µM. Further, the 90% effect concentration (IC90) under setting [2] is > 25 µM.

The record behind these values is PubChem BioAssay AID504703 (Southern Research Specialized Biocontainment Screening …, 2011).
